This is an account of results in US9122153B2, “Cyclic compound, method for producing same, composition, and method for forming resist pattern” (MITSUBISHI GAS CHEMICAL COMPANY, INC., priority 2011, dated 2015).

Molecules are shown by their SMILES.

The nature of this series: Solubility test of compound in safe solvent. Format: physicochemical. Particulars: 23° C., ultrasonic wave 30 minutes, visually evaluated; for CHN (dissolution amount): cyclohexanone; for PGME (dissolution amount): propylene glycol monomethyl ether. The method, then: The compound was precisely weighed in a test tube at 23° C.; and the target solvent was added to the compound so that a predetermined concentration of the liquid to be obtained is set; a ultrasonic wave was applied to the liquid in an ultrasonic washing machine for 30 minutes; and the state of the resulting liquid was visually evaluated.
The solubility of the compound in propylene glycol monomethyl ether (PGME) and cyclohexanone (CHN) was evaluated according to the following standard using the dissolution amount in each solvent. • A: 5.0% by weight≦dissolution amount • B: 3.0% by weight≦dissolution amount<5.0% by weight • C: dissolution amount<3.0% by weight • (2) Resolution, Shape, Roughness (LER), and Sensitivity of Resist Pattern
The dissolution amounts of compounds obtained in the above Synthesis Examples 1 and 2 and Synthesis Comparative Example 1 in propylene glycol monomethyl ether (PGME) and cyclohexanone (CHN) were evaluated using the above evaluation method and standard.

In the case of `Oc1cc(O)c2cc1C(c1ccc(C3CCCCC3)cc1)c1cc(c(O)cc1O)C(c1ccc(C3CCCCC3)cc1)c1cc(c(O)cc1O)C(c1ccc(C3CCCCC3)cc1)c1cc(c(O)cc1O)C2c1ccc(C2CCCCC2)cc1` (stereo not drawn) [CR-1A, reference compound], the “CHN (dissolution amount)” value is given as “C (dissolution amount<3.0% by weight)” and the “PGME (dissolution amount)” value is on record as “B (3.0% by weight≦dissolution amount<5.0% by weight)”.
As for `Oc1cc(O)c2cc1C(c1ccc(I)cc1)c1cc(c(O)cc1O)C(c1ccc(I)cc1)c1cc(c(O)cc1O)C(c1ccc(I)cc1)c1cc(c(O)cc1O)C2c1ccc(I)cc1` (stereo not drawn) [CR-1], the “CHN (dissolution amount)” value was “A (5.0% by weight≦dissolution amount)” and the “PGME (dissolution amount)” value is given as “A (5.0% by weight≦dissolution amount)”.
In the case of `Oc1cc(O)c2cc1C(c1ccc(CI)cc1)c1cc(c(O)cc1O)C(c1ccc(CI)cc1)c1cc(c(O)cc1O)C(c1ccc(CI)cc1)c1cc(c(O)cc1O)C2c1ccc(CI)cc1` (stereo not drawn) [CR-2], the “CHN (dissolution amount)” value was “A (5.0% by weight≦dissolution amount)” and the “PGME (dissolution amount)” value was “A (5.0% by weight≦dissolution amount)”.
